Reference: paper PMC3466269, “A Comprehensive Strategy to Discover Inhibitors of the Translesion Synthesis DNA Polymerase κ” (PLoS ONE, 2012)

Biological target: T1, Yeast pol δ (Saccharomyces cerevisiae, UniProt P15436)
T1 sequence (P15436 1-1097): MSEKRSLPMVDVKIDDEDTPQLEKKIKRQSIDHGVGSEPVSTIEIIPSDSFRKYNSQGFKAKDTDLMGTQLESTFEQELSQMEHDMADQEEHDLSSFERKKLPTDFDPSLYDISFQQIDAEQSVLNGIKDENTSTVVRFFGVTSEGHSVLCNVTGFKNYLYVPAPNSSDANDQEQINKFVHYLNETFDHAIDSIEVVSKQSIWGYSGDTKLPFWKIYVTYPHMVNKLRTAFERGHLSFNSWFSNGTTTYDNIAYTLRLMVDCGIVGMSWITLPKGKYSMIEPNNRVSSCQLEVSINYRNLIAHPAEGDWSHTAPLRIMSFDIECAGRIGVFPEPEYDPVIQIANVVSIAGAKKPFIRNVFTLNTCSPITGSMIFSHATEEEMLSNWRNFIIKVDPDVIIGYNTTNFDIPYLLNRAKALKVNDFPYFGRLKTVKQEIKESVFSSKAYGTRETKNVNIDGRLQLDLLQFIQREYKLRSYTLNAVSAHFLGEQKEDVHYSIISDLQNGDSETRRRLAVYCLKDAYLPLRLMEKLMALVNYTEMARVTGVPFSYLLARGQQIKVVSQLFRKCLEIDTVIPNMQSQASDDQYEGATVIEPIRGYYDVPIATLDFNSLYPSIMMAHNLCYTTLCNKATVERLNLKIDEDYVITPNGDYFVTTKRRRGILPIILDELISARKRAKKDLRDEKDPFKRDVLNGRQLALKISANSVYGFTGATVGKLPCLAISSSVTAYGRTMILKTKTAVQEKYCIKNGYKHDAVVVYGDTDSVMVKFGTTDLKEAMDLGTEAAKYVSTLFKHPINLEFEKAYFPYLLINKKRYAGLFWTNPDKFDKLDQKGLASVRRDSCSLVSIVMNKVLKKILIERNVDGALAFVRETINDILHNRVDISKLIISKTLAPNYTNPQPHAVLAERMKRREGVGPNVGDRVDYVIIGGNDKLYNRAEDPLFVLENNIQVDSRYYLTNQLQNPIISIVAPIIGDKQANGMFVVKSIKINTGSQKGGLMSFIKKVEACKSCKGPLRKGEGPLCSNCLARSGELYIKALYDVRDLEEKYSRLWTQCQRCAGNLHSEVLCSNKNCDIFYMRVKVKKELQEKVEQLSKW
T1 sequence (P46957 1-487 partner): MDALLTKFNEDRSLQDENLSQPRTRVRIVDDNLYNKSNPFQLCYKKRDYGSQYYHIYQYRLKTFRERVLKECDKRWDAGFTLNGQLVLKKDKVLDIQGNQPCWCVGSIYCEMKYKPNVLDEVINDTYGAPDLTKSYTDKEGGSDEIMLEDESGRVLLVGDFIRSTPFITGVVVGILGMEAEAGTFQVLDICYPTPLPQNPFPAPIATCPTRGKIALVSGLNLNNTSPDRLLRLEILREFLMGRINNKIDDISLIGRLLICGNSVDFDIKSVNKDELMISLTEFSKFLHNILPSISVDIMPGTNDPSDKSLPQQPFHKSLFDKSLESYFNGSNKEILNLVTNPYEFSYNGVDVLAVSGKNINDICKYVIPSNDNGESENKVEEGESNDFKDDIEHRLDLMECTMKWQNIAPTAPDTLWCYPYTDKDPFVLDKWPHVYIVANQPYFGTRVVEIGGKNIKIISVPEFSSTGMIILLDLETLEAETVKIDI
T1 sequence (P47110 1-350 partner): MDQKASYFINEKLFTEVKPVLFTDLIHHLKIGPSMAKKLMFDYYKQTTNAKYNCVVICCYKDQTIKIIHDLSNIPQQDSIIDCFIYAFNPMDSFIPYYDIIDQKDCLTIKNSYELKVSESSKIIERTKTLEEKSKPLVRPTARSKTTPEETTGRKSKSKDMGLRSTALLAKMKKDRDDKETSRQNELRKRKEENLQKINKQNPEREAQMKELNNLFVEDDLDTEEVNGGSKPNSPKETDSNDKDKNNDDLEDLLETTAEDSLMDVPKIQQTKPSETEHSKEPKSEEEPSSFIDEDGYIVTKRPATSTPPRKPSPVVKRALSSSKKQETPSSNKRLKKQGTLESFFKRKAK
Experiment: Radioactive gel-based primer extension assay, pol δ
Type: biochemical
Experimental: The reactions with pol κ, pol η, and pol ι were carried out in the buffers containing 25 mM Tris-HCl, pH 7.5, 8 mM MgCl2, 10% glycerol, 100 µg/mL bovine serum albumin, and 5 mM DTT. Buffers for pol δ reactions contained 40 mM Hepes-KOH, pH 6.8, 10% glycerol, 200 µg/mL bovine serum albumin, 1 mM DTT, and 8 mM MgCl2. Final concentration of pol κ, pol η, pol ι, or pol δ in the reaction was 0.25 nM, 1 nM, 2.5 nM, or 4 nM, respectively. In this assay, a polymerase was preincubated with the compound for 15 min at room temperature. Primer extensions were then initiated by the addition of DNA substrate at final concentration of 5 nM and carried out for 30 min at room temperature in the presence of 100 µM dCTP and dGTP. The reactions were terminated by the addition of an equal volume of a dye solution containing 95% (v/v) formamide, 10 mM EDTA, 0.03% (w/v) xylene cyanol, and 0.03% (w/v) bromphenol blue. Reaction products were separated through a 15% acrylamide gel containing 8 M urea and visualized with a PhosphorImager screen. The ratio of extended primer to the total amount of primer was measured using ImageQuant 5.2 software to calculate the percentage of primer extended. IC50 values were determined by fitting the data to variable slope four-parameter equations using GraphPad Prism 5. […]

CCOc1nc2cccc(C(=O)OC(C)OC(=O)OC3CCCCC3)c2n1Cc1ccc(-c2ccccc2-c2nnn[nH]2)cc1 (centres unmarked) [candesartan cilexetil, Candesartan cilexetil]
IC50 pol δ (maximum concentration 80 µM): could not be determined | Inhibition of pol δ DNA synthesis (several concentrations, maximum 80 µM, data not shown): only at 80 µM concentration was there detectable inhibition
